# Tests used:
# chlorite dismutase (Cld) [1] = target: T1, chlorite dismutase (Cld) (Dechloromonas aromatica (nom. nud.), UniProt Q47CX0); test: biochemical
# chlorite dismutase (Cld) [2] = target: T1, chlorite dismutase (Cld); test: X-ray co-crystal structure; assay type: binding
# T1 sequence (Q47CX0 35-282): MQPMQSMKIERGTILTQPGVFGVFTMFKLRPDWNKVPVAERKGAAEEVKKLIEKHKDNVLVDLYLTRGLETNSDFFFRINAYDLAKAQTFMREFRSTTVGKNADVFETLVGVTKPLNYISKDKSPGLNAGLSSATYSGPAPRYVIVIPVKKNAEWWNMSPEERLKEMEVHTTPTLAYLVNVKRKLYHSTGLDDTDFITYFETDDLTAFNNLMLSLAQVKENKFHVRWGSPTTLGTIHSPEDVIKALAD
Kd (chlorite dismutase (Cld) [1]) [mM],SMILES,Kd (chlorite dismutase (Cld) [2]) [mM]
36,CC(=O)O [acetate],–
–,O=NO [nitrite],1.12

# — publication PMC2909366 (Journal of biological inorganic chemistry : JBIC : a …, 2010)
